# According to patent US10045981B2, “Selective kinase inhibitors” (JAKPHARM, LLC, priority 2015, dated 2018):
# Marks after values point to notes of the source that are not given here.
# What was measured:
# [1] = Mouse Liver Microsomes stability; format: in vitro ADME; settings: read-out: Mouse Liver Microsomes t½
# EGFR (G719C) = EGFR (G719C) (Homo sapiens, UniProt P00533, G719C); assay: Exemplary Kinase Panel Analysis; format: biochemical; settings: 10 concentrations, 3-fold serial dilutions starting at 5 μM, duplicate
# Experimental: Kinase Panel: These compounds were tested against 439 kinases. […]. […] The results are presented in Table 2 below, where empty cells indicate no inhibition or compound activity that could not be fit to an IC50 curve.
# CYP2D6 = CYP2D6 (Homo sapiens, UniProt P10635); assay: CYP2D6 inhibition LCMS; format: in vitro ADME
# [2] = Rat Liver Microsomes stability; format: in vitro ADME; settings: read-out: Rat Liver Microsomes t½
# JAK3 [3] = molecular target: T1, JAK3 (Homo sapiens, UniProt P52333); assay: JAK3 biochemical IC50; settings: for JAK3 selectivity vs. STAT5: STAT5 IC50 relative to JAK3 IC50; for selectivity for JAK3 compared to JAK1, JAK2, and TYK2 (in words): two independent analyses
# T1 sequence (P52333 1-1124): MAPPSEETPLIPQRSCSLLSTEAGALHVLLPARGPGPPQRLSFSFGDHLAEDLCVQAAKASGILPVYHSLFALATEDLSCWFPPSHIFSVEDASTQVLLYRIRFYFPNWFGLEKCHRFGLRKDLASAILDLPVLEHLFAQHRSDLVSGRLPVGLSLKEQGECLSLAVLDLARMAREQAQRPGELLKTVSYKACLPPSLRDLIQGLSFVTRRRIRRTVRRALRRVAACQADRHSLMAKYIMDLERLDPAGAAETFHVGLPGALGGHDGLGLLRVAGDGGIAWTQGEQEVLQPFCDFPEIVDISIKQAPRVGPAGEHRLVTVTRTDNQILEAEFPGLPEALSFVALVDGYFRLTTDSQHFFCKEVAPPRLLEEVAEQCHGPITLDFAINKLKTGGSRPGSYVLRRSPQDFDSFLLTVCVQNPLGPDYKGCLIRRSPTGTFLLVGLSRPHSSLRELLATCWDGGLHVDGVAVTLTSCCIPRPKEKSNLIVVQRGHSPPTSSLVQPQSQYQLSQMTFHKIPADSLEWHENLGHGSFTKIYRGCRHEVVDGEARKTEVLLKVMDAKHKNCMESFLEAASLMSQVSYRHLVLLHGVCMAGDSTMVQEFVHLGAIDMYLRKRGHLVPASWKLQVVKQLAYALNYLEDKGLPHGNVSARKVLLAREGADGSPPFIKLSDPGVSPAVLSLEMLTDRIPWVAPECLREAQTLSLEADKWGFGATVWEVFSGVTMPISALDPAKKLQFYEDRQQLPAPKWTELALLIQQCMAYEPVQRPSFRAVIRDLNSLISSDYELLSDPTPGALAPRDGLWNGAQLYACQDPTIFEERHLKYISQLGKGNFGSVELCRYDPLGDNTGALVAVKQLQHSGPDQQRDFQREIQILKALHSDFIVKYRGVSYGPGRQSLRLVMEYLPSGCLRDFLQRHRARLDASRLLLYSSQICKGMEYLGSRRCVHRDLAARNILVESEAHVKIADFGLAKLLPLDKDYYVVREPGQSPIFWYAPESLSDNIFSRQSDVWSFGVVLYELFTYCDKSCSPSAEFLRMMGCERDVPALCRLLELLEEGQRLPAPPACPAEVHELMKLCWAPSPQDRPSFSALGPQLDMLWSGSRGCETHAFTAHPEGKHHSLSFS
# [4] = Human Liver Microsomes stability; format: in vitro ADME; settings: read-out: Human Liver Microsomes t½
# CK1g1 = CK1g1 (Homo sapiens, UniProt Q9HCP0); assay: Exemplary Kinase Panel Analysis; format: biochemical; settings: 10 concentrations, 3-fold serial dilutions starting at 5 μM, duplicate
# CYP1A2 = molecular target: T2, CYP1A2 (Homo sapiens, UniProt P05177); assay: CYP1A2 inhibition LCMS; format: in vitro ADME
# T2 sequence (P05177 1-516): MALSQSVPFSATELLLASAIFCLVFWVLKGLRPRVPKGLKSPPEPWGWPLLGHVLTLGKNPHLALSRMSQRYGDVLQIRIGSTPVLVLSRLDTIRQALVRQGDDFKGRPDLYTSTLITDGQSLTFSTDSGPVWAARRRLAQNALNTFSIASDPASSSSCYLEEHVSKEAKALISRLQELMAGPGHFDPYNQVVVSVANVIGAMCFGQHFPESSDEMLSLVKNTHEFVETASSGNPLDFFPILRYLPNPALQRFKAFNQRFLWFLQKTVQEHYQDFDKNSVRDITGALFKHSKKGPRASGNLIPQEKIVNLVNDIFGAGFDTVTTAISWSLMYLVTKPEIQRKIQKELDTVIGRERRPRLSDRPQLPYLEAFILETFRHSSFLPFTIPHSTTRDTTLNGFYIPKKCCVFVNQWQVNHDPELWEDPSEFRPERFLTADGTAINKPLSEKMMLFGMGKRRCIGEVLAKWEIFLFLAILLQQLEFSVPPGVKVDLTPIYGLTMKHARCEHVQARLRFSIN
# CYP2C19 = CYP2C19 (Homo sapiens, UniProt P33261); assay: CYP2C19 inhibition LCMS; format: in vitro ADME
# JAK3 [5] = molecular target: T1, JAK3; assay: Exemplary Kinase Panel Analysis; format: biochemical; settings: 10 concentrations, 3-fold serial dilutions starting at 5 μM, duplicate
# EGFR (T790M) = EGFR (T790M) (Homo sapiens, UniProt P00533, T790M); assay: Exemplary Kinase Panel Analysis; format: biochemical; settings: 10 concentrations, 3-fold serial dilutions starting at 5 μM, duplicate
# [6] = Cytotoxicity Screening L929 Fibroblasts; format: cell-based; settings: mouse, read-out: 50% Maximal Effect Concentration (AC50)
# Description: (§1) The cytotoxicity screening panel included cell count, nuclear size, DNA structure, cell membrane permeability, mitochondrial mass, mitochondrial membrane potential, and cytochrome C release.
# L929 Fibroblasts = assay: Cytotoxicity Screening L929 Fibroblasts; format: cell-based
# Description: as §1
# [7] = Brain penetration classification
# [8] = Human Plasma protein binding; format: in vitro ADME
# CK1g2 = CK1g2 (Homo sapiens, UniProt P78368); assay: Exemplary Kinase Panel Analysis; format: biochemical; settings: 10 concentrations, 3-fold serial dilutions starting at 5 μM, duplicate
# [9] = Original analysis, read-out: JAK3 IC50 (uM) Original
# [10] = Table 3, first session (before /), read-out: JAK3 biochemical IC50
# [11] = Table 3, second session (after /), read-out: JAK3 biochemical IC50
# [12] = re-test, read-out: JAK3 IC50 (uM) re-test
# Chain of CK1g1 (Q9HCP0 whole entry): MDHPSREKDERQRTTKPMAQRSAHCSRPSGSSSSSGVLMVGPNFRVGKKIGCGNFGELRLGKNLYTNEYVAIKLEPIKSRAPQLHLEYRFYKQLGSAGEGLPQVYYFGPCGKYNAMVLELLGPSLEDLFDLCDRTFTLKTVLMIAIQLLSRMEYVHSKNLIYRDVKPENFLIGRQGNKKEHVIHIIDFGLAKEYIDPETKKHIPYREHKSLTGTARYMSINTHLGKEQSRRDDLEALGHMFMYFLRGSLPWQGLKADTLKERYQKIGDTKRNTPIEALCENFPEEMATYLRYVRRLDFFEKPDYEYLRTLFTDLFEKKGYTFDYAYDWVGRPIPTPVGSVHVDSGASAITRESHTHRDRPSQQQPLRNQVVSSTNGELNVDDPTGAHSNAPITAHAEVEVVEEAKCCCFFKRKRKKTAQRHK
# Chain of EGFR (G719C) (P00533 25-1210 G719C): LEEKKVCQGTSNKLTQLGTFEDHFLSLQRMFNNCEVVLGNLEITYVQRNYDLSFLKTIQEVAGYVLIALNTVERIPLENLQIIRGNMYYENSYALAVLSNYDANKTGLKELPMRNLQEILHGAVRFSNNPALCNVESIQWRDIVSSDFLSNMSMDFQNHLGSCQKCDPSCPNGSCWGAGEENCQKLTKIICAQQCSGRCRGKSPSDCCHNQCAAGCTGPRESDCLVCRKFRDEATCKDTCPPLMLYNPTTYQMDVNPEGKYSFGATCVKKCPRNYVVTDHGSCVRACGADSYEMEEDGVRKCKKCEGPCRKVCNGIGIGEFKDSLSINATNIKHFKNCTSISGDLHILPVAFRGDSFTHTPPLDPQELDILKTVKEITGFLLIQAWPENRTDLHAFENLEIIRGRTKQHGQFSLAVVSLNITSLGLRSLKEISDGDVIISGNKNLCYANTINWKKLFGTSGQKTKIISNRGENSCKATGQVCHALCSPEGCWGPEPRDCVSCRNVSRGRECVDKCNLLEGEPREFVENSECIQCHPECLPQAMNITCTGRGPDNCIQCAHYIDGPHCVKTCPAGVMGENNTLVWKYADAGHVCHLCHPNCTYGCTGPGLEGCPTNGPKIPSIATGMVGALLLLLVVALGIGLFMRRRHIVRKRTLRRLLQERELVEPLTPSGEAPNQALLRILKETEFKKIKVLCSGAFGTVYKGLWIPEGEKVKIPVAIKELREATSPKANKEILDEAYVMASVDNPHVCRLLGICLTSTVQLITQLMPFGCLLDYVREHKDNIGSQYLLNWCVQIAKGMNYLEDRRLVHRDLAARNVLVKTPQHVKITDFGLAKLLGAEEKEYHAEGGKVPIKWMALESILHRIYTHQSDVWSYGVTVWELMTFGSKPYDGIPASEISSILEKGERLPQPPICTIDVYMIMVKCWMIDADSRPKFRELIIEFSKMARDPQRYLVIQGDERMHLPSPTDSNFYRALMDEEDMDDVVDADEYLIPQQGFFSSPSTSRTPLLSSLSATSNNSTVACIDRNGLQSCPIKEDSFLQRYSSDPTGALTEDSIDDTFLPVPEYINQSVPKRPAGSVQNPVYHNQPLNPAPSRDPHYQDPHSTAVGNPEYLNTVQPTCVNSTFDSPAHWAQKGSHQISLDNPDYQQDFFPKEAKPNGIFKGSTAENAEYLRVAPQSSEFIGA
# Chain of EGFR (T790M) (P00533 25-1210 T790M): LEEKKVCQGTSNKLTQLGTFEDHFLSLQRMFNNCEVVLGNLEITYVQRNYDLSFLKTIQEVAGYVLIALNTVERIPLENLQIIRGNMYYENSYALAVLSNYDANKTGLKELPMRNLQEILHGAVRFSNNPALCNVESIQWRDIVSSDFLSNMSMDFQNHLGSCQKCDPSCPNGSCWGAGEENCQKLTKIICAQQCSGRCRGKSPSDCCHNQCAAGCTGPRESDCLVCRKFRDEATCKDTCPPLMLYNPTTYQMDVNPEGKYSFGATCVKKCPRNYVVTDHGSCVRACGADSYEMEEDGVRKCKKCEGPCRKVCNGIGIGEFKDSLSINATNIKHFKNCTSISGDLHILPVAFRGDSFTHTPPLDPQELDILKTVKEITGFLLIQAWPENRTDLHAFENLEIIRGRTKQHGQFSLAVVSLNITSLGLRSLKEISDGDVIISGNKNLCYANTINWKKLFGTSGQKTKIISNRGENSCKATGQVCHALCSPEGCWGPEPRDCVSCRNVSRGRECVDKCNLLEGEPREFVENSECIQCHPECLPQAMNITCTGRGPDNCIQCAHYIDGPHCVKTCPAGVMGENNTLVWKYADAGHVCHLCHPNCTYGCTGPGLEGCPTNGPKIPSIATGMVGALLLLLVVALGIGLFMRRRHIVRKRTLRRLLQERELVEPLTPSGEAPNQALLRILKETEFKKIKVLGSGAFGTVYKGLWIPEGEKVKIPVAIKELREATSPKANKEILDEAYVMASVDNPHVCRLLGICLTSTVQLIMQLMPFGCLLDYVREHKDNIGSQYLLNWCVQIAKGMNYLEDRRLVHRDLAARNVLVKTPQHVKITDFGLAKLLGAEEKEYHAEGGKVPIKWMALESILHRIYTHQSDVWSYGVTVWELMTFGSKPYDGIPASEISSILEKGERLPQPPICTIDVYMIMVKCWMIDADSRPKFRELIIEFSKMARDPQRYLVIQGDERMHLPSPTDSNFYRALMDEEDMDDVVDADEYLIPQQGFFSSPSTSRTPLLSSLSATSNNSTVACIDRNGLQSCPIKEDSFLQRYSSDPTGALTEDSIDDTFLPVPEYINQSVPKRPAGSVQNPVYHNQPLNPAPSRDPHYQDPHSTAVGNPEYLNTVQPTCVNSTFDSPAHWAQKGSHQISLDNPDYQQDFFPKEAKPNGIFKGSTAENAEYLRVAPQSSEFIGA
# Chain of CYP2C19 (P33261 whole entry): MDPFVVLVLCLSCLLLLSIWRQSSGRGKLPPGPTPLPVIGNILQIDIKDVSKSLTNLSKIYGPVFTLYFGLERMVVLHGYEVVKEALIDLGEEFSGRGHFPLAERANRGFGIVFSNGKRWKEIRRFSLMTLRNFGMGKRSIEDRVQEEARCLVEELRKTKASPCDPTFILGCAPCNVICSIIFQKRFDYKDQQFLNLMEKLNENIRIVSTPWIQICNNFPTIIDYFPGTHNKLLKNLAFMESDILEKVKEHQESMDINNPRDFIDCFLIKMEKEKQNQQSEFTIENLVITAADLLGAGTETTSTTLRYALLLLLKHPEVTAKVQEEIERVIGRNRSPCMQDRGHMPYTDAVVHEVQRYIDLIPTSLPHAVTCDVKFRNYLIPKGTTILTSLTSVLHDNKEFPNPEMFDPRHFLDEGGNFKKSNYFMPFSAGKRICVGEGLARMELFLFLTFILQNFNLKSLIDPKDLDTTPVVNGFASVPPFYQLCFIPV
# Chain of CYP2D6 (P10635 whole entry): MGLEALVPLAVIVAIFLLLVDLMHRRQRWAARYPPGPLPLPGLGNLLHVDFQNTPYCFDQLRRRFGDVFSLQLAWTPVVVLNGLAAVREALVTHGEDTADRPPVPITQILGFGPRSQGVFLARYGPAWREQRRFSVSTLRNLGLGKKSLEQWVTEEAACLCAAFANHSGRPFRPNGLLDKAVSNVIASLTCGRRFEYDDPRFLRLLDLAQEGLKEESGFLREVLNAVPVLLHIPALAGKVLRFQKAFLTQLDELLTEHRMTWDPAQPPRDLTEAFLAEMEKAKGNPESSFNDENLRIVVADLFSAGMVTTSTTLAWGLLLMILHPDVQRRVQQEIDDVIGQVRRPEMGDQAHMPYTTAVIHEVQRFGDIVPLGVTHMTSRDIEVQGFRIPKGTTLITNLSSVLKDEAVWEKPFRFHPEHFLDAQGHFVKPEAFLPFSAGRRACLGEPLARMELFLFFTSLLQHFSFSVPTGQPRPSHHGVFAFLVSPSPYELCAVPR
# Chain of CK1g2 (P78368 whole entry, species assumed): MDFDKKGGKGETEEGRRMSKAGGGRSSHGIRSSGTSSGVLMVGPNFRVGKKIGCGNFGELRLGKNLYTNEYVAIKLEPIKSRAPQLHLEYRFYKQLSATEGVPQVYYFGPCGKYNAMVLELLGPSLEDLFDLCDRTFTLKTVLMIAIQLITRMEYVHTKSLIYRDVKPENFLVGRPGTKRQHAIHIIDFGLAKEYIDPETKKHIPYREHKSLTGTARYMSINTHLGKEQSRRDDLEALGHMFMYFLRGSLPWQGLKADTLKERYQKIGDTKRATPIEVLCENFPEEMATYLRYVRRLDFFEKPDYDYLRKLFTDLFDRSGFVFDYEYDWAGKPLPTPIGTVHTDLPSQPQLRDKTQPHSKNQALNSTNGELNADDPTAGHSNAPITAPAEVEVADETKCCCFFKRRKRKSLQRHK
SMILES,half-life ([1]; first session (before /)) [min],half-life ([1]; second session (after /)) [min],IC50 (CYP2D6; first session (before /)) [µM],IC50 (CYP2D6; second session (after /)) [µM],half-life ([2]; first session (before /)) [min],half-life ([2]; second session (after /)) [min],IC50 (JAK3 [3]; [9]) [µM],JAK3 selectivity vs. STAT5 (JAK3 [3]),IC50 (JAK3 [3]; [10]) [µM],IC50 (JAK3 [3]; [11]) [µM],IC50 (JAK3 [3]; [12]) [µM],"selectivity for JAK3 compared to JAK1, JAK2, and TYK2 (in words) (JAK3 [3])",half-life ([4]; first session (before /)) [min],half-life ([4]; second session (after /)) [min],IC50 (CK1g1) [nM],IC50 (CYP1A2; first session (before /)) [µM],IC50 (CYP1A2; second session (after /)) [µM],IC50 (CYP2C19; first session (before /)) [µM],IC50 (CYP2C19; second session (after /)) [µM],IC50 (JAK3 [5]) [nM],further results
C=CC(=O)Nc1cc(CC(=O)OC)cc(-c2cnc3ccccc3n2)c1 [Compound 2],3.3,6,> 100,> 100,2,2.2,0.013,(370X)*,0.015,0.007,0.007,highly selective for JAK3,> 1000,5.5,80.2,90,5.1,> 100,95,1.19,"IC50 (EGFR (G719C)): 423 nM; IC50 (EGFR (T790M)): 3310 nM; AC50 [6]: 18 µM; Minimal Effective Concentration (MEC, uM) (L929 Fibroblasts): 2 µM; Brain penetration classification [7]: Moderate; fraction unbound [8]: 0.123; IC50 (CK1g2): 9.86 nM"
C=CC(=O)Nc1cc(CN2CCN(C)C(=O)C2)cc(-c2cnc3ccccc3n2)c1 [Compound 1a],7.3,15,> 100,> 100,50,36,0.013,(178X)*,0.013,0.01,0.01,highly selective for JAK3,64,60,588,34,> 100,> 100,90,1.57,"IC50 (EGFR (G719C)): 66.1 nM; IC50 (EGFR (T790M)): 688 nM; AC50 [6]: 20 µM; Minimal Effective Concentration (MEC, uM) (L929 Fibroblasts): 9 µM; Brain penetration classification [7]: Low; fraction unbound [8]: 0.223; IC50 (CK1g2): 248 nM"
C=CC(=O)Nc1cc(NS(C)(=O)=O)cc(-c2cnc3ccccc3n2)c1 [Compound 3],25,84,> 100,> 100,38,60,0.016,(382X)*,0.016,0.023,0.023,highly selective for JAK3,58,60,109,> 100,> 100,> 100,59,24.9,"IC50 (EGFR (T790M)): 2240 nM; AC50 [6]: 20 µM; Minimal Effective Concentration (MEC, uM) (L929 Fibroblasts): 10 µM; Brain penetration classification [7]: Low; fraction unbound [8]: 0.054; IC50 (CK1g2): 33.3 nM"
"C=CC(=O)Nc1cc(CN2CCNC(=O)C2)cc(-c2cnc3ccccc3n2)c1 [Compound 1b, N-[3-[(3-oxopiperazin-1-yl)methyl]-5-quinoxalin-2-yl-phenyl] prop-2-enamide]",23,50,> 100,> 100,63,77,0.018,(392X)*,0.018,0.018,0.018,highly selective for JAK3,75,> 60,738,> 100,> 100,> 100,> 100,0.972,"IC50 (EGFR (G719C)): 193 nM; IC50 (EGFR (T790M)): 3540 nM; AC50 [6]: 45 µM; Minimal Effective Concentration (MEC, uM) (L929 Fibroblasts): 20 µM; Brain penetration classification [7]: Low; fraction unbound [8]: 0.317; IC50 (CK1g2): 322 nM"
